Values joined by “and” are separate entries in the source; they are usually repeats but may differ in a detail not shown here. Equal entries are not always repeated.
Key:
[1] = target: human α-thrombin (Homo sapiens, UniProt P00734); experiment: Sub-library screen for active and permeable cyclic peptides (PAMPA plus thrombin inhibition); format: biochemical; conditions: crude, slopes normalized to DMSO; for Residual thrombin activity: Top sample: PAMPA acceptor well after 14 h, 5 μM donor; for Residual thrombin activity: Equilibrated sample: donor sample diluted to theoretical equilibrium (1 μM in assay)
Procedure: Linear dithiol peptides were synthesized in fritted 5-ml polypropylene syringes on a MultiPep RSi parallel peptide synthesizer (Intavis) by standard Fmoc-based solid-phase peptide synthesis on cysteamine 2-chlorotrityl resin (Sigma-Aldrich, 8.56000, 1.63 mmol g^−1 loading, 25 μmol scale) as described above with small changes. Amino acids (65 μmol, 2.6 eq.) were activated with HATU (63 μmol, 2.5 eq.) and NMM (145 μmol, 5.8 eq.) in 280 μl of DMF and 5 μl of NMP and let to react with the resin (25 μmol, 1 eq.) for 45 min. Couplings were performed twice for each amino acid. Resin was washed once with 800 μl of DMF, and unreacted amines were capped with 5% acetic anhydride and 6% 2,6-lutidine in 400 μl of DMF for 5 min. The resin was washed six times with 600 μl of DMF, and Fmoc protecting groups were removed by incubating the resin twice with 450 μl of a 20% piperidine solution in DMF for 5 min. The resin was washed six times with 600 μl of DMF before proceeding to the next coupling cycle. After completing the last coupling cycle, the resin was washed six times with […] of DCM. Peptide cleavage and ether precipitation were carried out as described above. After quantification with Ellman’s reagent, 1 μmol of each peptide was transferred in seven replicates to new Nunc 96-well DeepWell polypropylene plates and lyophilized. Peptides were cyclized as described above to afford 20 mM cyclic peptide stock solutions in DMSO containing 160 mM HEPES sodium salt. The amine on cyclic peptides was acylated with 5-chlorothiophene-2-carboxylic acid as follows. A 160 mM solution in 5-chlorothiophene-2-carboxylic acid was prepared in DMSO containing 160 mM HEPES sodium salt, and the acid was activated by mixing in equal volumes with a 160 mM HSTU solution in DMSO. Then, 10 μl of the activated carboxylic acid solutions and the cyclic peptide stocks were placed in Echo Qualified 384-well Low Dead Volume microplates (Labcyte), and 400 nl of cyclic peptide and 400 nl of HSTU-activated 5-chlorothiophene-2-carboxylic acid were transferred combinatorially to 384-well microplates (Greiner, 781076) using the Echo 650 acoustic liquid handler (Labcyte). Plates were centrifuged at 2,000 g for 2 min, and the reaction was allowed to proceed at room temperature for 8 h before addition of 39.2 μl of DMSO with a CERTUS FLEX liquid dispenser (Gyger). A volume of 25 μl of the resulting DMSO solutions was diluted with PBS buffer at pH 7.4 containing 5% DMSO in Nunc 96-well DeepWell polypropylene plates to afford 5 μM solutions of the acylated peptides.
The PAMPA plates were covered with a lid to avoid evaporation and incubated for 14 h at room temperature. Additionally, a diluted donor sample was prepared at the concentration representing theoretical maximum permeability (3 μM). Thereby, 30 μl of the donor sample before incubation was diluted with 20 μl of PBS buffer at pH 7.4 containing 5% DMSO. Volumes of 16 μl of each acceptor well and the diluted donor samples were transferred to a 384-well microplate (Greiner, 781076), and thrombin activity was measured as follows. Human α-thrombin (16 μl, 6 nM, Molecular Innovations) in assay buffer was dispensed into each well using a CERTUS FLEX liquid dispenser (Gyger), and plates were incubated at room temperature for 10 min. Then, 16 μl of a 150 μM fluorogenic thrombin substrate solution (Z-Gly-Gly-Arg-AMC, Bachem) in assay buffer containing 1% DMSO was added to each well, and thrombin inhibition was determined by measuring the fluorescent gain over time. Fluorescence intensity was measured on a Tecan Infinite M200 Pro microplate reader for 30 min at 25 °C with a fluorescent readout every 3 min (excitation: 360 nm, emission: 465 nm). Protease inhibition was calculated by comparing the enzymatic activity to a control without cyclic peptide.

[2] = Metabolic stability in rat liver microsomes (RLMs); conditions: for TIC value at 0 min: 0 min incubation, Ox (+16)/(+32), deMe (-14)/(-28) = mass adducts (metabolites); for TIC value at 0 min / TIC value at 5 min / TIC value at 15 min / TIC value at 30 min / TIC value at 60 min: LCMS TIC, individual replicates R1-R3, protein 0.5 mg/ml; for TIC value at 5 min: 5 min incubation; for TIC value at 15 min: 15 min incubation; for TIC value at 30 min: 30 min incubation; for TIC value at 60 min: 60 min incubation; for half-life / microsomal CLint: rat, microsomes
[3] = Half Life Mean, rat liver microsomes, mean of R1-R3
[4] = Half Life, rat liver microsomes, individual replicates R1-R3
[5] = RLM CL Mean, rat liver microsomes, mean of R1-R3
[6] = RLM CL, rat liver microsomes, individual replicates R1-R3, incubation volume 400 ul, protein 0.5 mg/ml
[7] = Metabolic stability: RLM CL (ul/min/mg), RLMs, mean and SD, three measurements
[8] = Half-life (T1/2) in RLMs, 10 μM peptide, 37 °C, mean and s.d. of three measurements
[9] = Metabolic stability: Half life T1/2 (min), RLMs, mean and SD, three measurements

SMILES | Residual thrombin activity: Top sample [1] | Residual thrombin activity: Equilibrated sample [1] | TIC value at 0 min ([2]; rat liver microsomes) | TIC value at 5 min ([2]; rat liver microsomes) | TIC value at 15 min ([2]; rat liver microsomes) | TIC value at 30 min ([2]; rat liver microsomes) | TIC value at 60 min ([2]; rat liver microsomes) | half-life [2, 3] [min] | half-life [2, 4] [min] | microsomal CLint [2, 5] [µL/min/mg] | microsomal CLint [2, 6] [µL/min/mg] | microsomal CLint [2, 7] [µL/min/mg] | half-life [2, 8] [min] | half-life [2, 9] [min]
O=C1C[C@H]2CCCN2C(=O)[C@H](Cc2ccccc2)NC(=O)[C@@H](NC(=O)c2ccc(Cl)s2)CSCc2cccc(n2)CSCCN1 [C1-X5-L1] | 77.6 | 68.5 |  |  |  |  |  |  |  |  |  |  |  | 
O=C1C[C@H]2CCCN2C(=O)[C@H](Cc2ccccc2)NC(=O)[C@@H](NC(=O)c2ccc(Cl)s2)CSCCS(=O)(=O)CCSCCN1 [C1-X5-L2] | 88.1 | 37.4 |  |  |  |  |  |  |  |  |  |  |  | 
O=C1C[C@H]2CCCN2C(=O)[C@H](Cc2ccccc2)NC(=O)[C@@H](NC(=O)c2ccc(Cl)s2)CSCc2ccc(cc2)CSCCN1 [C1-X5-L3] | 88.7 | 68.9 |  |  |  |  |  |  |  |  |  |  |  | 
O=C(Cc1c[nH]c2ccccc12)N[C@H]1CSCCS(=O)(=O)CCSCCNC(=O)C2(CCCC2)NC(=O)[C@@H]2CCCN2C1=O [compound 5] |  |  | 4100940 (2×) and 3001933 | 3877569 and 3883518 and 2646636 | 3731666 and 3678603 and 2895431 | 3163475 and 3179511 and 2181012 | 2955229 and 3322280 and 1801495 | > 60 | > 60 | 14.1 | 12.6 |  |  | 
O=C1CSCCNC(=O)c2ccc(cc2)CNC(=O)[C@@H](NC(=O)C2CCS(=O)(=O)CC2)CCNC(=O)CCSC1 [compound 6] |  |  | 880057 (2×) and 553202 | 821271 and 965964 and 386285 | 765281 and 1161804 and 367708 | 697748 and 898601 and 342582 | 664165 and 808479 and 323125 |  | 50.6 | 16.6 |  | 16.6 ± 7.6 |  | 
O=C1C[C@@H]2CCCN2C(=O)[C@@H](NC(=O)c2cccc(Cl)c2)CSCc2cccc(n2)CSCCNC(=O)[C@H](Cc2c[nH]c3ccccc23)N1 [compound 7] |  |  | 3550654 (2×) and 4325681 | 3349041 and 3673040 and 3817703 | 2080247 and 3097312 and 2624551 | 1705819 and 1909847 and 1817380 | 1049135 and 1421730 and 1465716 | 31.3 | 28.4 | 45.2 | 48.8 | 45 ± 6 | 31 ± 5 | 31 ± 5
CN1CCC(=O)NCCSCC(=O)CSC[C@H](NC(=O)c2cccc(C(F)(F)F)c2)C(=O)N2CCC[C@@H](C2)C1=O [compound 8] |  |  | 6751463 (2×) and 7547988 | 6145465 and 6292775 and 6289651 | 3895721 and 6301539 and 5568669 | 3369766 and 4709220 and 3894141 | 1916782 and 2986882 and 2251799 | 37.4 | 28.1 | 39.6 | 49.2 | 40 ± 9 | 37 ± 10 | 37 ± 10
Cn1nccc1C(=O)N1CCC2(CC1)NC(=O)[C@H](CC1CCCCC1)NC(=O)CCSCc1cccc(n1)CSCCNC2=O [compound 9] |  |  | 15547492 (2×) and 14631455 | 12759369 and 8856874 and 13246148 | 8028101 and 6898172 and 9892349 | 4900968 and 4228902 and 5914854 | 1719220 and 1798352 and 2620253 | 22.3 | 17.3 | 64.1 | 80.2 | 64 ± 11 | 22 ± 4 | 22 ± 4
CC(C)[C@@H]1NC(=O)CCSCCS(=O)(=O)CCSCCNC(=O)[C@H](CNC(=O)c2ccco2)NC1=O [compound 10] |  |  | 5136707 (2×) and 3317301 | 5335426 and 4509848 and 3329443 | 4513948 and 3668718 and 2626547 | 4035558 and 3666920 and 2228136 | 3223521 and 2515297 and 2382324 | > 60 | > 60 | 17.6 | 15.4 | 17.6 ± 2.6 |  | 
O=C1CC2CCN(CC2)C(=O)[C@@H](NC(=O)c2cc(F)cc(F)c2)CSCc2ccc(cc2)CSCCNC(=O)[C@H](Cc2ccccc2)N1 [peptide 1] |  |  | 4586491 (2×) and 3645847 | 3654952 and 3734486 and 3061802 | 1752251 and 2543021 and 981764 | 740144 and 790714 and 195334 | 105910 and 231909 and 39522 | 11.5 | 11.6 | 123 | 119 | 123 ± 18 | 11 | 11.5 ± 1.7
O=C(N[C@H]1CSC/C=C\CSCCNC(=O)C2(CC2)CNC(=O)[C@H](CO)NC1=O)c1cccnc1 [peptide 2] |  |  | 4300369 (2×) and 5050392 | 4094044 and 4040957 and 4614305 | 4065591 and 3605857 and 4671032 | 3778445 and 3534653 and 4132452 | 3236121 and 3689440 and 3984891 | > 60 | > 60 | 10.7 | 9.21 | 10.7 ± 1.9 |  | 
COc1ccc(CC(=O)N[C@H]2Cc3ccc(cc3)CNC(=O)c3cccc(c3)CNC(=O)CCSCc3ccc(cc3)CSCCNC2=O)cc1OC [peptide 3] |  |  | 1629049 (2×) and 1656894 | 1396633 and 1109599 and 1416564 | 688706 and 808072 and 696583 | 432016 and 448206 and 497739 | 192689 and 235300 and 132050 | 16.9 | 15 | 83.8 | 92.5 | 84 ± 11 | 16.9 ± 2.5 | 16.9 ± 2.5
NC(=O)NCCC[C@@H]1NC(=O)C2CN(CCN2C(=O)C2CCCN2S(=O)(=O)c2ccc(F)cc2)C(=O)CCSC/C=C/CSCCNC1=O (stereo partly shown) [peptide 4] |  |  | 2209118 (2×) and 1061770 | 1524575 and 1610332 and 921634 | 1519207 and 1327718 and 738514 | 1146033 and 1076120 and 486997 | 743609 and 590507 and 376829 | 34.6 | 31.2 | 40.6 | 44.4 | 41 ± 5 | 34 ± 4 | 35 ± 4

Reference: publication PMC11062899, “De novo development of small cyclic peptides that are orally bioavailable” (Nature Chemical Biology, 2023)
